Values belong to the compound of their own block, whether it stands above or below them. The source made the active and inactive calls. The calls are words filed in the database; no cut-off is given here.
Experiments:
[1] = molecular target: Sodium-dependent noradrenaline transporter (Homo sapiens, UniProt P23975); conditions: Compound concentration 10.0 uM
[2] = molecular target: Beta-3 adrenergic receptor (Homo sapiens) (UniProt P13945); conditions: Compound concentration 10.0 uM
D(2) dopamine receptor = D(2) dopamine receptor (Homo sapiens, UniProt P14416); conditions: Compound concentration 10.0 uM
[3] = molecular target: D(1A) dopamine receptor (Homo sapiens) (UniProt P21728); conditions: Compound concentration 10.0 uM
[4] = molecular target: 5-hydroxytryptamine receptor 2B (Homo sapiens, UniProt P41595); conditions: Compound concentration 10.0 uM
[5] = molecular target: Alpha-1A adrenergic receptor (Homo sapiens) (UniProt P35348); conditions: Compound concentration 10.0 uM
[6] = molecular target: 5-hydroxytryptamine receptor 5A (Homo sapiens) (UniProt P47898); conditions: Compound concentration 10.0 uM
[7] = molecular target: Alpha-2A adrenergic receptor (Homo sapiens) (UniProt P08913); conditions: Compound concentration 10.0 uM
[8] = molecular target: Alpha-1D adrenergic receptor (Homo sapiens) (UniProt P25100); conditions: Compound concentration 10.0 uM
[9] = molecular target: GABA-A receptor; anion channel (Rattus norvegicus) (UniProt O09028+P15431+P18506+P18508+P19969+P20236+P23574+P23576+P28471+P28473+P30191+P62813+P63079+P63138+Q91ZM7+Q9ES14); conditions: Compound concentration 10.0 uM
[10] = molecular target: Sigma non-opioid intracellular receptor 1 (Homo sapiens, UniProt Q99720); conditions: Compound concentration 10.0 uM
[11] = molecular target: Histamine H3 receptor (Homo sapiens) (UniProt Q9Y5N1); conditions: Compound concentration 10.0 uM
[12] = molecular target: 5-hydroxytryptamine receptor 6 (Homo sapiens) (UniProt P50406); conditions: Compound concentration 10.0 uM
[13] = molecular target: 5-hydroxytryptamine receptor 3A (Homo sapiens) (UniProt P46098); conditions: Compound concentration 10.0 uM
[14] = molecular target: Muscarinic acetylcholine receptor M4 (Homo sapiens) (UniProt P08173); conditions: Compound concentration 10.0 uM
D(3) dopamine receptor = D(3) dopamine receptor (Homo sapiens, UniProt P35462); conditions: Compound concentration 10.0 uM
[15] = molecular target: 5-hydroxytryptamine receptor 2C (Homo sapiens) (UniProt P28335); conditions: Compound concentration 10.0 uM
[16] = molecular target: Alpha-2B adrenergic receptor (Homo sapiens) (UniProt P18089); conditions: Compound concentration 10.0 uM
[17] = molecular target: Sodium-dependent serotonin transporter (Homo sapiens) (UniProt P31645); conditions: Compound concentration 10.0 uM
[18] = molecular target: 5-hydroxytryptamine receptor 7 (Homo sapiens, UniProt P34969); conditions: Compound concentration 10.0 uM
[19] = molecular target: Histamine H1 receptor (Homo sapiens) (UniProt P35367); conditions: Compound concentration 10.0 uM
[20] = molecular target: Muscarinic acetylcholine receptor M1 (Homo sapiens) (UniProt P11229); conditions: Compound concentration 10.0 uM
[21] = molecular target: Muscarinic acetylcholine receptor M2 (Homo sapiens) (UniProt P08172); conditions: Compound concentration 10.0 uM
[22] = molecular target: 5-hydroxytryptamine receptor 1A (Homo sapiens) (UniProt P08908); conditions: Compound concentration 10.0 uM
[23] = molecular target: Delta-type opioid receptor (Homo sapiens) (UniProt P41143); conditions: Compound concentration 10.0 uM
[24] = molecular target: Amyloid-beta precursor protein (Homo sapiens, UniProt P05067); assay: Aβ40 inhibition assay
[25] = molecular target: Alpha-2C adrenergic receptor (Homo sapiens) (UniProt P18825); conditions: Compound concentration 10.0 uM
[26] = molecular target: Sodium-dependent dopamine transporter (Homo sapiens, UniProt Q01959); conditions: Compound concentration 10.0 uM
[27] = molecular target: Mu-type opioid receptor (Homo sapiens) (UniProt P35372); conditions: Compound concentration 10.0 uM
[28] = molecular target: Kappa-type opioid receptor (Homo sapiens, UniProt P41145); conditions: Compound concentration 10.0 uM
[29] = molecular target: 5-hydroxytryptamine receptor 2A (Homo sapiens, UniProt P28223); conditions: Compound concentration 10.0 uM
[30] = molecular target: 5-hydroxytryptamine receptor 1D (Homo sapiens, UniProt P28221); conditions: Compound concentration 10.0 uM
[31] = molecular target: 5-hydroxytryptamine receptor 1B (Homo sapiens, UniProt P28222); conditions: Compound concentration 10.0 uM
[32] = molecular target: Muscarinic acetylcholine receptor M5 (Homo sapiens) (UniProt P08912); conditions: Compound concentration 10.0 uM
[33] = molecular target: D(1B) dopamine receptor (Homo sapiens) (UniProt P21918); conditions: Compound concentration 10.0 uM
[34] = molecular target: Sigma intracellular receptor 2 (Homo sapiens, UniProt Q5BJF2); conditions: Compound concentration 10.0 uM
[35] = molecular target: D(4) dopamine receptor (Homo sapiens) (UniProt P21917); conditions: Compound concentration 10.0 uM
[36] = molecular target: Alpha-1B adrenergic receptor (Homo sapiens) (UniProt P35368); conditions: Compound concentration 10.0 uM
[37] = molecular target: RAC-beta serine/threonine-protein kinase (Homo sapiens) (UniProt P31751); conditions: Compound concentration 1000.0 nM
[38] = molecular target: Mitogen-activated protein kinase kinase kinase 4 (Homo sapiens) (UniProt Q9Y6R4); conditions: Compound concentration 1000.0 nM
[39] = molecular target: Phosphatidylinositol 5-phosphate 4-kinase type-2 beta (Homo sapiens) (UniProt P78356); conditions: Compound concentration 1000.0 nM
[40] = molecular target: Mitogen-activated protein kinase 12 (Homo sapiens) (UniProt P53778); conditions: Compound concentration 1000.0 nM
[41] = molecular target: Interleukin-1 receptor-associated kinase 4 (Homo sapiens) (UniProt Q9NWZ3); conditions: Compound concentration 1000.0 nM
[42] = system: Mast/stem cell growth factor receptor Kit (Homo sapiens), P10721 [A829P]; conditions: Compound concentration 1000.0 nM
[43] = molecular target: Mitogen-activated protein kinase kinase kinase kinase 4 (Homo sapiens) (UniProt O95819); conditions: Compound concentration 1000.0 nM
[44] = system: Tyrosine-protein kinase ABL1 (Homo sapiens), P00519 [Y253F]; conditions: Compound concentration 1000.0 nM

Chain of Kappa-type opioid receptor (P41145 whole entry): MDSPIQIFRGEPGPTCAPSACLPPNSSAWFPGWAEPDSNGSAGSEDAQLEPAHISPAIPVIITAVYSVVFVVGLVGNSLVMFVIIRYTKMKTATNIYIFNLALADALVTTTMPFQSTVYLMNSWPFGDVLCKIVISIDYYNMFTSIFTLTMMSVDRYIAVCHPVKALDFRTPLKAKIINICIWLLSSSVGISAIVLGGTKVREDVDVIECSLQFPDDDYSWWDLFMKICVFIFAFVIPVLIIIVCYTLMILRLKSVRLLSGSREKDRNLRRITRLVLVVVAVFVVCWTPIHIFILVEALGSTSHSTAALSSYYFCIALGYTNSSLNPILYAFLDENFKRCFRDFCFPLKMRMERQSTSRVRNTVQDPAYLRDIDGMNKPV
Chain of Histamine H1 receptor (Homo sapiens) (P35367 whole entry): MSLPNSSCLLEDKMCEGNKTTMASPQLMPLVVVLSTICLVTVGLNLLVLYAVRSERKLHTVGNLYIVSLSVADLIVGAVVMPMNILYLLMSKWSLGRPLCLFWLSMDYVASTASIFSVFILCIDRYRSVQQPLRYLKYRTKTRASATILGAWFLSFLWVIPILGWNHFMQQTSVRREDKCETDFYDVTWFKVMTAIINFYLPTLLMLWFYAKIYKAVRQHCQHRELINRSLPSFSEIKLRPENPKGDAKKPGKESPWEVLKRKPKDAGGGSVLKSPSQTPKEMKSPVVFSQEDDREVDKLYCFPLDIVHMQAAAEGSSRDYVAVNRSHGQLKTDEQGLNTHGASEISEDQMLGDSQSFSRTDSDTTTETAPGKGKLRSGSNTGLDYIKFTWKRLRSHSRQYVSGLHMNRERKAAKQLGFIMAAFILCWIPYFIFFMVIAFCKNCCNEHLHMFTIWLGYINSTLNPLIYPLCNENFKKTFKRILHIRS
Chain of 5-hydroxytryptamine receptor 5A (Homo sapiens) (P47898 whole entry): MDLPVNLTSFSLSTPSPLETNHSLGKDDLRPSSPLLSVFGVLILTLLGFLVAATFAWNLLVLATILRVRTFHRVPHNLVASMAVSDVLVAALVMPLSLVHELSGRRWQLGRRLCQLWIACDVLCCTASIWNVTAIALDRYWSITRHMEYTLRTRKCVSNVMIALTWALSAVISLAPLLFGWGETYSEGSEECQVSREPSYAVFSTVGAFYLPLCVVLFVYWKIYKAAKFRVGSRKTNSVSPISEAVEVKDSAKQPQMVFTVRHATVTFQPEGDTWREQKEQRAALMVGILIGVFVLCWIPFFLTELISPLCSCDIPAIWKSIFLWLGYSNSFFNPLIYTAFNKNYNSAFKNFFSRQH
Chain of D(4) dopamine receptor (Homo sapiens) (P21917 whole entry): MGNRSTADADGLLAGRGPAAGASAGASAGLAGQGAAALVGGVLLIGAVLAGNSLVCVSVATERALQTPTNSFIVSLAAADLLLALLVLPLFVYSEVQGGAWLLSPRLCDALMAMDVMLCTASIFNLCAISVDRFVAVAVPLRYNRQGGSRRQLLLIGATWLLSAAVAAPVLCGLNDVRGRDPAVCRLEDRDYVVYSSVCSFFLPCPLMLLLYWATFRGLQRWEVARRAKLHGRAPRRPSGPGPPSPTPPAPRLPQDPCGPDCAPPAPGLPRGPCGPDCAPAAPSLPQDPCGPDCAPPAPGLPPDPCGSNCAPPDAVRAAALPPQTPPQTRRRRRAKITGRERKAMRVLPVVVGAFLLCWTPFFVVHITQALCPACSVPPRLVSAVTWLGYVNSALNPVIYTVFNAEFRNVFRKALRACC
Chain of Histamine H3 receptor (Homo sapiens) (Q9Y5N1 whole entry): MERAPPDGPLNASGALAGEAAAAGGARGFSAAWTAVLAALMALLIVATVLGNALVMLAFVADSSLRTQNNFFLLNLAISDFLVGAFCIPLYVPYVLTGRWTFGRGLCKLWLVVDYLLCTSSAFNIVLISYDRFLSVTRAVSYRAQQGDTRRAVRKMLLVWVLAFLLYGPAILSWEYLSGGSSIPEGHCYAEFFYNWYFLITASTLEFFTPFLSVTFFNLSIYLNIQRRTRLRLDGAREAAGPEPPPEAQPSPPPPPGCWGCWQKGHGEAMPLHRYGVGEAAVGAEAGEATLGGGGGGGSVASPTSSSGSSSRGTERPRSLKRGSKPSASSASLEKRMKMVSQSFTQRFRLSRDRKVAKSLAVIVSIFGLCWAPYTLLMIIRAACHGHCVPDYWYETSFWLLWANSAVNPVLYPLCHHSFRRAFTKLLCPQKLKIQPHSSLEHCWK
Chain of 5-hydroxytryptamine receptor 3A (Homo sapiens) (P46098 whole entry): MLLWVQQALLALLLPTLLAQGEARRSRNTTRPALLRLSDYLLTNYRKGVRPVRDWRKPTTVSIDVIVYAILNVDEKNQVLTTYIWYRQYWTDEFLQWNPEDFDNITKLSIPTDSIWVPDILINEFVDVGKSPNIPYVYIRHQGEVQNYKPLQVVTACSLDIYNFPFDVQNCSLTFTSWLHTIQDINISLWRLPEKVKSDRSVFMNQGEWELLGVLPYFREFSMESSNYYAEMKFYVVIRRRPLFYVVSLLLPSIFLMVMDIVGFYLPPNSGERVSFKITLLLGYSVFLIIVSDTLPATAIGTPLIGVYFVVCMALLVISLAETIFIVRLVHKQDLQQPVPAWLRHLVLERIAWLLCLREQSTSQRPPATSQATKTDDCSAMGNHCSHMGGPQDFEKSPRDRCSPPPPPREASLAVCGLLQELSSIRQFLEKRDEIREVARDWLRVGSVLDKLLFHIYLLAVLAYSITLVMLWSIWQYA
Chain of Beta-3 adrenergic receptor (Homo sapiens) (P13945 whole entry, looked up): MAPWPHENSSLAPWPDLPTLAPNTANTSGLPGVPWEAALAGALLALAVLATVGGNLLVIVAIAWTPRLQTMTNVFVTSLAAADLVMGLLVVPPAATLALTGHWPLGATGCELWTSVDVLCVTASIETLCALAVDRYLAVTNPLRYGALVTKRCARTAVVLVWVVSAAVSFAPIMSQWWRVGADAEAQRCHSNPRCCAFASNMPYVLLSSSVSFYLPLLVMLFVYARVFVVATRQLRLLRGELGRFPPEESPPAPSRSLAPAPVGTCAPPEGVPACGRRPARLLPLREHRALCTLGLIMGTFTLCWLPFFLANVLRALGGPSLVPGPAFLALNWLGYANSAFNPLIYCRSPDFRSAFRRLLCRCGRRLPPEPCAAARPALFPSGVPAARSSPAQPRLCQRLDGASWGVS
Chain of Alpha-1A adrenergic receptor (Homo sapiens) (P35348 whole entry): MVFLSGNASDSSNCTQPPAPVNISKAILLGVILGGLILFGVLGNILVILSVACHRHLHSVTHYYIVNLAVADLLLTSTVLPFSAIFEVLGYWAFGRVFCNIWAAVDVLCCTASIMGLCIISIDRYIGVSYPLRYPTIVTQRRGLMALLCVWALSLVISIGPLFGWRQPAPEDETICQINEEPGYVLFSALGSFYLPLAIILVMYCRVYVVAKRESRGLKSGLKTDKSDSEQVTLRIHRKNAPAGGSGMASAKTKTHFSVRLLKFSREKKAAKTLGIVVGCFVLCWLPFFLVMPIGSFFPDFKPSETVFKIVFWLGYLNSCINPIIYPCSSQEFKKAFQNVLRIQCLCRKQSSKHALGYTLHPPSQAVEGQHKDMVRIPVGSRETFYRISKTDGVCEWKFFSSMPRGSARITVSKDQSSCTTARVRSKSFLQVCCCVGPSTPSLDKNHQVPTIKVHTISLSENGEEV
Chain of Muscarinic acetylcholine receptor M1 (Homo sapiens) (P11229 whole entry): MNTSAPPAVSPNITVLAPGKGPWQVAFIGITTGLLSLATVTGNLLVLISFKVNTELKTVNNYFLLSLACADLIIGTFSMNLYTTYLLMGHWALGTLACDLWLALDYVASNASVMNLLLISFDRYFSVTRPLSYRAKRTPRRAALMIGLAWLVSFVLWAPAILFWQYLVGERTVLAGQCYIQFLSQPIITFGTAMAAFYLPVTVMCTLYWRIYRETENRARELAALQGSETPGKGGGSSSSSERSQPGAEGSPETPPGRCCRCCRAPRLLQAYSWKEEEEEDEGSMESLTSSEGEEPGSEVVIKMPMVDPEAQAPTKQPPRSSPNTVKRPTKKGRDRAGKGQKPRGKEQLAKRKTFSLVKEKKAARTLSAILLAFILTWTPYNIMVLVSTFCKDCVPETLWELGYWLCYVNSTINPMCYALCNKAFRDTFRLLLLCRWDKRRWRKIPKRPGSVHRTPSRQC
Chain of 5-hydroxytryptamine receptor 6 (Homo sapiens) (P50406 whole entry): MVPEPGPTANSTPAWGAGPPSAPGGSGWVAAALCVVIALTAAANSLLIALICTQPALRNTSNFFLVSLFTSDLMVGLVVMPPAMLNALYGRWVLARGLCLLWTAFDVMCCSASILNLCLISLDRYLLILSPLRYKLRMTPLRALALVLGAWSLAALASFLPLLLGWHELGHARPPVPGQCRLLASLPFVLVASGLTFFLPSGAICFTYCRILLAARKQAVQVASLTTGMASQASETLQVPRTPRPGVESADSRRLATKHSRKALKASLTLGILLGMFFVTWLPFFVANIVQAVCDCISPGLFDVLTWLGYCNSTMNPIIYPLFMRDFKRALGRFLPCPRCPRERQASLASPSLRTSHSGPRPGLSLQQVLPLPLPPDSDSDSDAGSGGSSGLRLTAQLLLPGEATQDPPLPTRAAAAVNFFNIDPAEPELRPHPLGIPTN
Chain of 5-hydroxytryptamine receptor 2C (Homo sapiens) (P28335 whole entry): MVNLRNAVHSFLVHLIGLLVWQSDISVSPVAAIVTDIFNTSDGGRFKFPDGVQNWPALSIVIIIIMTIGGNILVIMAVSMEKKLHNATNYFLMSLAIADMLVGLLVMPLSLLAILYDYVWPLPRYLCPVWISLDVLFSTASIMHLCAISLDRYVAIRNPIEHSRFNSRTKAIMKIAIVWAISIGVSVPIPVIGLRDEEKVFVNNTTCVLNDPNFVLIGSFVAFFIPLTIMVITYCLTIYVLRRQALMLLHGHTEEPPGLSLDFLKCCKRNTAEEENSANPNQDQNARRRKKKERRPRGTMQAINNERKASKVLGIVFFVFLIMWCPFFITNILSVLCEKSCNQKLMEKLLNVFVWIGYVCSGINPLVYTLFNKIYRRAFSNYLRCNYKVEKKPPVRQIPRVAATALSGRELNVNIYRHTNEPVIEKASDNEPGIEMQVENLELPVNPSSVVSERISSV

inhibition [1]: 50.7% | inhibition [2]: 25.6% | inhibition (D(2) dopamine receptor): 83% | inhibition [3]: 13.8% | inhibition [4]: 97.2% | inhibition [5]: 12.4% | inhibition [6]: 35% | inhibition [7]: 82.3% | inhibition [8]: 22.5% | inhibition [9]: 14.6% | inhibition [10]: 91.6% | inhibition [11]: 26.9% | inhibition [12]: 37.1% | inhibition [13]: -5.6% | inhibition [14]: 25.6% | inhibition (D(3) dopamine receptor): 86.1% | inhibition [15]: 80.9% | inhibition [16]: 77.4% | inhibition [17]: 6.71% | inhibition [18]: 70.7% | inhibition [19]: 25.6% | inhibition [20]: 8.44% | inhibition [21]: 9.4% | inhibition [22]: 66.3% | inhibition [23]: 21.4% | IC50 [24]: 1600 nM (not active) | inhibition [25]: 81.4% | inhibition [26]: 95.9% | inhibition [27]: 49.1% | inhibition [28]: 69.8% | inhibition [29]: 92.2% | inhibition [30]: 61.4% | inhibition [31]: 70.4% | inhibition [32]: 26.5% | inhibition [33]: 13.1% | inhibition [34]: 83.4% | inhibition [35]: 20.4% | inhibition [36]: 41%
SMILES: CC(C)(C)OC(=O)N1CCCC1CNC1CCC(c2cc(F)ccc2F)(S(=O)(=O)c2ccc(Cl)cc2)CC1 (centres undefined) [GSI-NC]

SMILES: O=S(=O)(NC1CCC(c2cc(F)ccc2F)(S(=O)(=O)c2ccc(Cl)cc2)CC1)C(F)(F)F (centres undefined) [MRK-560]
inhibition [1]: 7.49% | residual activity [37]: 99% | inhibition [2]: 13.5% | inhibition (D(2) dopamine receptor): 11.4% | inhibition [3]: 17.4% | inhibition [4]: 4.74% | inhibition [5]: 9.88% | inhibition [6]: -5.05% | inhibition [7]: 8.45% | inhibition [8]: 0.882% | inhibition [9]: 28.6% | inhibition [10]: 36.8% | inhibition [11]: 14.2% | inhibition [12]: 12.3% | inhibition [13]: -8.12% | inhibition [14]: 18.9% | residual activity [38]: 99% | residual activity [39]: 68% | inhibition (D(3) dopamine receptor): 21.7% | inhibition [15]: 12.3% | inhibition [16]: -2.13% | residual activity [40]: 89% | inhibition [17]: -3.67% | inhibition [18]: -5.02% | residual activity [41]: 97% | inhibition [19]: 20.3% | inhibition [20]: -5.38% | inhibition [21]: -0.654% | inhibition [22]: 18.3% | residual activity [42]: 100% | inhibition [23]: 20% | IC50 [24]: < 0.5 nM (active) | inhibition [25]: 18.2% | inhibition [26]: 75.1% | residual activity [43]: 71% | inhibition [27]: 20% | inhibition [28]: 24.6% | inhibition [29]: 31.2% | inhibition [30]: 13.9% | residual activity [44]: 100% | inhibition [31]: 15.4% | inhibition [32]: 1.96% | inhibition [33]: 11.3% | inhibition [34]: 25.2% | inhibition [35]: 20.1% | inhibition [36]: -5.22%

Source: ChEMBL document CHEMBL4507288 (2021)
